From ChEMBL document CHEMBL3243921, “2-Pyrrolidinylideneureas, a new class of central nervous system agents” (J Med Chem, 1978)
The source made the active and inactive calls.

Legend:
Mus musculus [1] = assay: Hypnotic activity in mouse assessed as increase in pentylenetetrazol-induced persistent-convulsive threshold up to 200 mg/kg, po; type: functional, organism-based; set-up: dose 200 mg/kg
[2] = Therapeutic index, ratio of PD50 for acute toxicity in po dosed mouse assessed as concentration required to produce 50% loss of righting reflex to MED25 for muscle relaxant activity in po dosed mouse assessed as increase in strychnine-induced persistant convulsive threshold; type: organism-based; settings: in vivo, read-out: TI
Mus musculus [3] = assay: Muscle relaxant activity in po dosed mouse assessed as increase in strychnine-induced persistant convulsive threshold; type: functional
Mus musculus [4] = assay: Potency index, ratio of chlorzoxazone MED20 to compound MED20 for muscle relaxant activity in po dosed mouse assessed as blockade of pentylenetetrazol-induced tonic extensor seizure; type: functional
[5] = Ratio of LD50 for po dosed mouse to PD50 for acute toxicity in po dosed mouse assessed as concentration required to produce 50% loss of righting reflex; type: organism-based; settings: in vivo
Mus musculus [6] = assay: Potency index, ratio of methocarbamol MED20 to compound MED20 for muscle relaxant activity in po dosed mouse assessed as blockade of pentylenetetrazol-induced tonic extensor seizure; type: functional
[7] = Acute toxicity in po dosed mouse assessed as mortality administered as qd for 6 days measured on day 7 post last dose; type: organism-based; settings: in vivo
Mus musculus [8] = assay: Blockade of pentylenetetrazol-induced lethality in mouse assessed as delay in occurrence of death time up to 200 mg/kg, po; type: functional
Mus musculus [9] = assay: Anticonvulsant activity in po dosed mouse assessed as blockade of supramaximal electroshock-induced […] seizure; type: functional
Mus musculus [10] = assay: Sedative activity in mouse assessed as increase in pentylenetetrazol-induced pseudo-convulsive threshold up to 200 mg/kg, po; type: functional, organism-based; set-up: dose 200 mg/kg
Rattus norvegicus = assay: Antianxiety activity in ip dosed rat assessed as effect on increase in punished responses administered qd for 5 days measured every day for 5 days; type: functional; settings: for minimal effective dose: 120 h, read-out: MED
Mus musculus [11] = assay: Acute toxicity in po dosed mouse assessed as concentration required to produce 50% loss of righting reflex administered as qd for 4 days measured for 1 min post last dose; type: organism-based; settings: in vivo
Mus musculus [12] = assay: Muscle relaxant activity in po dosed mouse assessed as blockade of pentylenetetrazol-induced tonic extensor seizure; type: functional
Mus musculus [13] = assay: Sedative activity in mouse assessed as increase in pentylenetetrazol-induced pseudo-convulsive threshold at 25 to 200 mg/kg, po; type: functional, organism-based
[14] = Therapeutic index, ratio of PD50 for acute toxicity in po dosed mouse assessed as concentration required to produce 50% loss of righting reflex to MED causing antianxiety activity in ip dosed rat assessed as effect on increase in punished responses; type: organism-based; settings: in vivo, other: oral (PD50, mouse) and intraperitoneal (MED, rat), read-out: TI
Mus musculus [15] = assay: Hypnotic activity in po dosed mouse assessed as increase in pentylenetetrazol-induced persistent-convulsive threshold; type: functional, organism-based
Mus musculus [16] = assay: Sedative-hypnotic activity in po dosed mouse assessed as increase in pentylenetetrazol-induced persistent-convulsive threshold; type: functional, organism-based

Compound | MED25 (Mus musculus [3]) | selectivity ratio [5] | LD50 at 144 h [7] | MED20 (Mus musculus [9]) | minimal effective dose (Rattus norvegicus) | PD50 (Mus musculus [11]) | MED20 (Mus musculus [12]) | Activity (Mus musculus [15]) | Activity (Mus musculus [3]) | Activity (Mus musculus [9]) | Activity (Mus musculus [16]) | Activity (Rattus norvegicus) | Activity (Mus musculus [12]) | further results
CN1CCC/C1=N\C(=O)Nc1c(Cl)cccc1Cl | 64 mg/kg | 1.8 | 565 mg/kg | 58 mg/kg | > 25 mg/kg | 320 mg/kg | 25 mg/kg |  |  |  |  |  |  | Activity (Mus musculus [1]): inactive; selectivity ratio [2]: 5; Ratio (Mus musculus [4]): 4; Ratio (Mus musculus [6]): 4; Time (Mus musculus [8]): 1 min; Activity (Mus musculus [10]): inactive
COc1cccc(OC)c1NC(=O)/N=C1\CCCN1C | >200 mg/kg | 1.4 | 650 mg/kg | 80 mg/kg | > 25 mg/kg | 460 mg/kg | 62 mg/kg |  |  |  |  |  |  | Activity (Mus musculus [1]): inactive; Time (Mus musculus [8]): 1 min; Activity (Mus musculus [10]): inactive
CN1CCC/C1=N\C(=O)Nc1ccccc1 | 35 mg/kg | 1 | 215 mg/kg | >100 mg/kg | 15 mg/kg | 220 mg/kg | 40 mg/kg |  |  |  |  |  |  | Activity (Mus musculus [13]): Active; selectivity ratio [14]: 15
CC(C)c1cccc(C(C)C)c1NC(=O)/N=C1\CCCN1C | >200 mg/kg |  | 260 mg/kg | 165 mg/kg |  |  | 180 mg/kg |  |  |  |  |  |  | Activity (Mus musculus [1]): inactive; Time (Mus musculus [8]): 1 min; Activity (Mus musculus [10]): inactive
COc1cccc(NC(=O)/N=C2\CCCN2C)c1 | 135 mg/kg | 1.5 | 1200 mg/kg | 135 mg/kg | > 25 mg/kg | 1390 mg/kg | 68 mg/kg |  |  |  |  |  |  | Activity (Mus musculus [13]): Active
CN1CCC/C1=N\C(=O)Nc1cccc(F)c1 | 210 mg/kg | 1 | 525 mg/kg | 200 mg/kg | 25 mg/kg | 500 mg/kg | 38 mg/kg |  |  |  |  |  |  | selectivity ratio [14]: 20
CN1CCC/C1=N\C(=O)Nc1cccc(I)c1 | 86 mg/kg |  | > 1000 mg/kg | 112 mg/kg | > 25 mg/kg | > 820 mg/kg | 36 mg/kg |  |  |  |  |  |  | 
CN1CCC/C1=N\C(=O)Nc1c(Br)cccc1Br | 50 mg/kg | 1.6 | 560 mg/kg | 74 mg/kg | > 25 mg/kg | 350 mg/kg | 25 mg/kg |  |  |  |  |  |  | Activity (Mus musculus [1]): inactive; selectivity ratio [2]: 7; Ratio (Mus musculus [4]): 4; Ratio (Mus musculus [6]): 4; Time (Mus musculus [8]): 1 min; Activity (Mus musculus [10]): inactive
CN1CCC/C1=N\C(=O)Nc1cccc(Br)c1 | 58 mg/kg | 1.1 | 1580 mg/kg | 180 mg/kg | 25 mg/kg | 1430 mg/kg | 52 mg/kg |  |  |  |  |  |  | Activity (Mus musculus [13]): Active; selectivity ratio [14]: 57
CN1CC(c2ccccc2)C/C1=N\C(=O)Nc1c(Cl)cccc1Cl (configuration not stated) |  |  |  |  |  |  |  | inactive | inactive | inactive | inactive | inactive | inactive | 
CCCCN1CCC/C1=N\C(=O)Nc1cccc(Cl)c1 |  |  |  |  |  |  |  | inactive | inactive | inactive | inactive | inactive | inactive | 
O=C(/N=C1\CCCCCN1)Nc1c(Cl)cccc1Cl |  |  |  |  |  |  |  | inactive | inactive | inactive | inactive | inactive | inactive | 
CN1CCCC/C1=N\C(=O)Nc1ccccc1 |  |  |  |  |  |  |  | inactive | inactive | inactive | inactive | inactive | inactive | 
CCCCN1CCC/C1=N\C(=O)Nc1c(C)cccc1C |  |  |  |  |  |  |  | inactive | inactive | inactive | inactive | inactive | inactive | 
CCC1(c2ccccc2)C(=O)NC(=O)NC1=O [PHENOBARBITAL] |  | 3 |  |  |  |  |  |  |  |  |  |  |  | 
Cc1cccc(C)c1NC(=O)/N=C1\CC(C)(C)CN1C |  |  |  |  |  |  |  | inactive | inactive | inactive | inactive | inactive | inactive | 
O=C(/N=C1\CCCN1Cc1ccccc1)Nc1cccc(Cl)c1 |  |  |  |  |  |  |  | inactive | inactive | inactive | inactive | inactive | inactive | 
CN1CCC/C1=N\C(=O)Nc1cccc(C(F)(F)F)c1 | 58 mg/kg |  | > 1000 mg/kg | 76 mg/kg | > 25 mg/kg | 1000 mg/kg | 47 mg/kg |  |  |  |  |  |  | Activity (Mus musculus [13]): Active
Cc1cccc(C)c1NC(=O)/N=C1\CCCN1C [XILOBAM] | 26 mg/kg |  |  | 27 mg/kg | > 25 mg/kg | 230 mg/kg | 22 mg/kg |  |  |  |  |  |  | Activity (Mus musculus [1]): inactive; Activity (Mus musculus [10]): inactive
Cc1cccc(NC(=O)/N=C2\CCCN2C)c1 | >200 mg/kg | 1 | 850 mg/kg | 76 mg/kg | 25 mg/kg | 825 mg/kg | 25 mg/kg |  |  |  |  |  |  | Activity (Mus musculus [13]): Active; selectivity ratio [14]: 33
CC(C)c1ccccc1NC(=O)/N=C1\CCCN1C |  |  |  |  |  |  |  | Active | Active | Active | Active | Active | Active | 
COc1cccc(NC(=O)/N=C2\CCC(C)N2C)c1 (configuration not stated) | 160 mg/kg | 1.5 | 1900 mg/kg | 135 mg/kg | > 25 mg/kg | 680 mg/kg | 68 mg/kg |  |  |  |  |  |  | 
CC1/C(=N\C(=O)Nc2c(Cl)cccc2Cl)N(C)CC1c1ccccc1 (configuration not stated) |  |  |  |  |  |  |  | inactive | inactive | inactive | inactive | inactive | inactive | 
CN1CC(C)(C)C/C1=N\C(=O)Nc1ccccc1 |  |  |  |  |  |  |  | inactive | inactive | inactive | inactive | inactive | inactive | 
CCc1cccc(CC)c1NC(=O)/N=C1\CCCN1C | 120 mg/kg | 2.3 | 370 mg/kg | 64 mg/kg | > 25 mg/kg | 161 mg/kg | 16 mg/kg |  |  |  |  |  |  | Activity (Mus musculus [1]): inactive; selectivity ratio [2]: 1.3; Ratio (Mus musculus [4]): 4; Ratio (Mus musculus [6]): 4; Time (Mus musculus [8]): 1 min; Activity (Mus musculus [10]): inactive
